This note sets out measurements from patent publication US11040028B2, “Penicinotam derivative, preparation method and use thereof” (OCEAN UNIVERSITY OF CHINA, priority 2017, dated 2021).

Holding throughout (format): cell-based
The test system of assay [1] is BHK-21 cells. In words: Anti-fibrosis activity test: inhibition of BHK-21 cell proliferation (CCK-8). The conditions noted are these: Mesocricetus auratus, BHK-21, 48 h, CCK-8, 48 hours after administration. In a few lines: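 Proliferation of BHK-21 cells is measured by CCK-8 at 450 nm following 48 h compound exposure at several concentrations. Inhibition is expressed relative to blank control and IC50 is computed from it.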

Assay [2] has as its system human lung fibroblasts HFL1. Nature of the assay: Anti-fibrosis activity test: inhibition of proliferation of human lung fibroblasts HFL1 (CCK-8). The conditions noted are these: Homo sapiens, HFL1, 48 h, human lung fibroblasts HFL1, CCK-8, 48 hours. The gist of the method: (§1)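 48 h compound treatment of fibroblast-type cells seeded at 2×10^4 cells/mL, 37° C, 5% CO2; viability by CCK-8 (2 h, A450). Inhibition rate calculated against blank control, IC50 by curve fitting; pirfenidone served as reference.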

Assay [3] has as its system human hepatic stellate cells LX-2. In words: Anti-fibrosis activity test: inhibition of proliferation of human hepatic stellate cells LX-2 (CCK-8). The conditions noted are these: Homo sapiens, 48 h, human hepatic stellate cells LX-2, CCK-8, 48 hours. The gist of the method: as §1
Assay [4] relates to human fibrosarcoma cells HT-1080. Nature of the assay: Anti-fibrosis activity test: inhibition of proliferation of human fibrosarcoma cells HT-1080 (CCK-8). The conditions noted are these: Homo sapiens, HT-1080, 48 h, human fibrosarcoma cells HT-1080, CCK-8, 48 hours. In a few lines: as §1
Assay [5] deals with human dermal fibroblasts CCC-ESF-1. Nature of the assay: Anti-fibrosis activity test: inhibition of proliferation of human dermal fibroblasts CCC-ESF-1 (CCK-8). The conditions noted are these: Fibroblast; human dermal fibroblasts CCC-ESF-1, CCK-8, 48 hours. In a few lines:
as §1

The test system of assay [6] is human embryonic lung fibroblast IMR-90. In words: Anti-fibrosis activity test: inhibition of proliferation of human embryonic lung fibroblast IMR-90 (CCK-8). The conditions noted are these: human embryonic lung fibroblast IMR-90, CCK-8, 48 hours. The gist of the method:
as §1

Assay [7] relates to cardiac fibroblast RAT-iCell-C002. Nature of the assay: Anti-fibrosis activity test: inhibition of proliferation of cardiac fibroblast RAT-iCell-C002 (CCK-8). The conditions noted are these: Cardiac fibroblast, 48 h, cardiac fibroblast RAT-iCell-C002, CCK-8, 48 hours. The gist of the method: as §1
Assay [8] has as its system NF-κB. In words: Immunological activity test: inhibition of NF-κB activity. The conditions noted are these: initial concentration of 30 μM; a/b isomers given as first/second symbol; read-out: IC50 (μM), inhibitory activity against NF-κB. In a few lines:
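Single-point testing at 30 μM preceded IC50 determination.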

The test system of assay [9] is mouse macrophages (RAW264.7). Nature of the assay: Lipopolysaccharide-induced NO secretion in macrophages (Griess). The conditions noted are these: Mus musculus, RAW264.7, 24 h, RAW264.7, LPS 1 μg/ml, a/b isomers given as first/second symbol, read-out: IC50 (μM), inhibition of lipopolysaccharide-induced NO secretion in macrophages. The gist of the method:
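RAW264.7 macrophages in DMEM with 10% FBS received test samples at several concentrations and were stimulated with 1 μg/ml LPS for 24 h. NO in the supernatant was measured with the Griess reagent at 548 nm, […].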

What is called IC50 is the concentration at which inhibition is half-maximal. Turning to `N#Cc1cccc(Cn2c3c(c(=O)c4ccccc42)C(=O)n2cccc2-3)c1` [Compound 597a, 3-((9,10-Dioxo-9H-pyrrolizino[1,2-b]quinolin-4(10H)-yl)methyl)benzonitrile], the IC50 in assay [1], in assay [2], in [3], in assay [4], in assay [5] and in assay [6] was 0.05 to 5 mM throughout. The IC50 was 0.05 to 5 mM in assay [7], 1 to 10 µM in assay [8] and 1 to 10 µM in assay [9].
Consider `N#Cc1cccc(COc2c3c(nc4ccccc24)-c2cccn2C3=O)c1` [Compound 597b, 3-(((10-oxo-10H-pyrrolizino[1,2-b]quinolin-9-yl)oxy)methyl)benzonitrile], for which the IC50 in assay [1], in assay [2], in assay [3], in assay [4], in assay [5] and in assay [6] was 0.05 to 5 mM throughout. Besides, the IC50 in assay [7] lay within 0.05 to 5 mM; in assay [8] it was 1 to 10 µM; in assay [9], 1 to 10 µM.
For the compound `O=C1c2c(n(Cc3cccc(C(F)(F)F)c3)c3ccccc3c2=O)-c2cccn21` [Compound 598a, 4-(3-(Trifluoromethyl)benzyl)-9H-pyrrolizino[1,2-b]quinoline-9,10(4H)-dione], the IC50 in assay [1], in [2], in [3], in [4], in assay [5] and in assay [6] was 0.05 to 5 mM each time. Besides, the figures for the IC50 in [7], in [8] and in [9] were 0.05 to 5 mM, 1 to 10 µM and 1 to 10 µM, respectively.
As to `O=C1c2c(nc3ccccc3c2OCc2cccc(C(F)(F)F)c2)-c2cccn21` [Compound 598b, 9-((3-(trifluoromethyl)benzyl)oxy)-10H-pyrrolizino[1,2-b]quinolin-10-one], the IC50 in assay [1], in assay [2], in assay [3], in [4], in [5] and in assay [6] was 0.05 to 5 mM throughout. Moreover, the IC50 in assay [7] lay in the range of 0.05 to 5 mM; in [8] it was 1 to 10 µM; in assay [9], 1 to 10 µM.
Consider `O=C1c2c(n(Cc3ccccc3F)c3ccccc3c2=O)-c2cccn21` [Compound 599a, 4-(2-Fluorobenzyl)-9H-pyrrolizino[1,2-b]quinoline-9,10(4H)-dione], for which the IC50 in [1], in [2], in assay [3], in assay [4], in [5] and in [6] was 0.05 to 5 mM in each case. Moreover, the figures for the IC50 in assay [7], in assay [8] and in [9] were 0.05 to 5 mM, 0.1 to 1 µM and 1 to 10 µM, respectively.
Consider `O=C1c2c(nc3ccccc3c2OCc2ccccc2F)-c2cccn21` [Compound 599b, 9-((2-fluorobenzyl)oxy)-10H-pyrrolizino[1,2-b]quinolin-10-one], for which the IC50 in assay [1], in assay [2], in assay [3], in assay [4], in [5] and in [6] was 0.05 to 5 mM each time. Also, the IC50 in assay [7] lay in the range of 0.05 to 5 mM; in assay [8], 1 to 10 µM; in [9] it was 1 to 10 µM.
Take `O=C1c2c(n(Cc3ccccc3Cl)c3ccccc3c2=O)-c2cccn21` [Compound 600a, 4-(2-Chlorobenzyl)-9H-pyrrolizino[1,2-b]quinoline-9,10(4H)-dione]: the IC50 in assay [1], in assay [2], in assay [3], in assay [4], in assay [5] and in assay [6] was 0.05 to 5 mM throughout. Besides, the IC50 was 0.05 to 5 mM in assay [7], 0.1 to 1 µM in assay [8] and 0.1 to 1 µM in assay [9].
For the compound `O=C1c2c(nc3ccccc3c2OCc2ccccc2Cl)-c2cccn21` [Compound 600b, 9-((2-chlorobenzyl)oxy)-10H-pyrrolizino[1,2-b]quinolin-10-one], the IC50 in [1], in [2], in assay [3], in assay [4], in assay [5] and in [6] was 0.05 to 5 mM throughout. In addition, the IC50 in assay [7] fell in the range of 0.05 to 5 mM; in assay [8] it was 1 to 10 µM; in [9], 1 to 10 µM.
For the compound `O=C1c2c(n(Cc3ccc(F)c(F)c3)c3ccccc3c2=O)-c2cccn21` [Compound 601a, 4-(3,4-Difluorobenzyl)-9H-pyrrolizino[1,2-b]quinoline-9,10(4H)-dione], the IC50 in assay [1], in assay [2], in [3], in [4], in assay [5] and in assay [6] was 0.05 to 5 mM each time. Also, the concentration for half-maximal inhibition (IC50) in assay [7] is 0.05 to 5 mM; in assay [8], 1 to 10 µM; in [9] it was 1 to 10 µM.
For the compound `O=C1c2c(nc3ccccc3c2OCc2ccc(F)c(F)c2)-c2cccn21` [Compound 601b, 9-((3,4-difluorobenzyl)oxy)-10H-pyrrolizino[1,2-b]quinolin-10-one], the IC50 in assay [1], in assay [2], in assay [3], in assay [4], in assay [5] and in assay [6] was 0.05 to 5 mM throughout. The values for the IC50 in assay [7], in [8] and in assay [9] were 0.05 to 5 mM, 1 to 10 µM and 1 to 10 µM, respectively.
For the compound `O=C1c2c(n(Cc3ccc(Cl)cc3F)c3ccccc3c2=O)-c2cccn21` [Compound 602a, 4-(4-Chloro-2-fluorobenzyl)-9H-pyrrolizino[1,2-b]quinoline-9,10(4H)-dione], the IC50 in assay [1], in [2], in assay [3], in assay [4], in assay [5] and in assay [6] was 0.05 to 5 mM throughout. Further, the IC50 in assay [7] fell in the range of 0.05 to 5 mM; in [8] it was 1 to 10 µM; in [9] it was 1 to 10 µM.
Regarding `O=C1c2c(nc3ccccc3c2OCc2ccc(Cl)cc2F)-c2cccn21` [Compound 602b, 9-((4-chloro-2-fluorobenzyl)oxy)-10H-pyrrolizino[1,2-b]quinolin-10-one], the IC50 in [1], in assay [2], in [3], in [4], in assay [5] and in assay [6] was 0.05 to 5 mM throughout. Moreover, the IC50 in assay [7] lay in the range of 0.05 to 5 mM; in [8], 1 to 10 µM; in [9], 1 to 10 µM.
For `O=C1c2c(n(Cc3ccc(F)c(Cl)c3)c3ccccc3c2=O)-c2cccn21` [Compound 603a, 4-(3-Chloro-4-fluorobenzyl)-9H-pyrrolizino[1,2-b]quinoline-9,10(4H)-dione], the IC50 in [1] is below 0.05 mM; in [2] it was 0.05 to 5 mM; in [3], 0.05 to 5 mM; in assay [4], 0.05 to 5 mM; in assay [5], 0.05 to 5 mM; in assay [6], 0.05 to 5 mM. Further, the values for the IC50 in assay [7], in assay [8] and in [9] were 0.05 to 5 mM, 1 to 10 µM and 1 to 10 µM, respectively.
